Measurements published in ChEMBL document CHEMBL4420077, “Synaptojanin-2 inhibitors and uses thereof” (2015).
The source made the active and inactive calls. No cut-off for these calls is given here.

tested on: MDA-MB-231; conditions: Homo sapiens, 10 uM
Description: Inhibition of cell invasion of human MDA-MB-231 cells at 10 uM incubated for 96 hrs by Matrigel based assay

Row | Structure (SMILES) | inhibition
1 | Cc1c(O)cc2c(c1O)C(=O)[C@H](O)[C@@H](c1ccc(O)c(O)c1)O2 | Active
2 | C/C(=C\CO[C@@H]1O[C@H](CO)[C@@H](O)[C@H](O)[C@H]1O)C(O)CCC(C)(C)O (some centres not stated) | Active
3 | O=C1C[C@@H](c2ccc(O)c(O)c2)Oc2cc(O[C@@H]3O[C@H](CO)[C@@H](O)[C@H](O)[C@H]3O)cc(O)c21 | Active
4 | Cc1cc(=O)c2c(O)cc(O)c([C@@H]3O[C@H](CO)[C@@H](O)[C@H](O)[C@H]3O)c2o1 | Active
5 | COc1cc(C2c3c(cc(OC)c(O)c3OC)CC(CO)C2COC2OCC(O)C(O)C2O)cc(OC)c1O (configuration not stated) | Active
6 | COc1cc(O)cc(O)c1C(=O)c1ccc(O)c(O)c1 | Active

tested on: MDA-MB-231; conditions: Homo sapiens, 5 mg/kg
Description: Antitumor activity against GFP-expressing human MDA-MB-231 cells xenografted in SCID mouse assessed as reduction in tumor lung micro-metastasis at 5 mg/kg injected twice per week for 6 weeks

Row | Structure (SMILES) | inhibition
7 | O=C(O)CC(CCc1ccccc1)O[C@H]1O[C@@H](CO)[C@H](O)[C@@H](O)[C@@H]1O (some centres not stated) | Active
